The source of these data is article PMC10349806 (Nature Communications, 2023).

One assay concerns PfCRT variant N84A. Kind of assay: CQ uptake assay, oocytes expressing N84A. The format is cell-based, Plasmodium falciparum. The method, then: (§1) Site-directed mutagenesis of PfCRT^Dd2 was performed as described using the megaprimer method with overlap extension[21],[54]. The primer pairs used are listed in Supplementary Table 6. Please note that a codon-optimized and oocyte-adapted version of PfCRT^Dd2 was used[22] (Supplementary Fig. 16). The resulting DNA fragment was cloned into the SP64T expression vector and verified by sequencing.
(§2) Oocytes were obtained as described previously. Briefly, adult (>2 years old) female X. laevis frogs (NASCO) were anesthetized in a cooled solution of ethyl 3-amino benzoate methanesulfonate (0.1%, w/v), followed by a surgical removal of parts of the ovary. The ovary lobes were carefully dissected and small pieces of oocytes were incubated in Ca^2+-free ND96 buffer (96 mM NaCl, 2 mM KCl, 1 mM MgCl2 buffered with 5 mM HEPES/NaOH, pH 7.5) supplemented with collagenase D (0.1%, w/v; Roche), BSA (0.5%, w/v), and 9 mm Na2HPO4 at 18 °C for 14-16 h while gentle shaking. After incubation, the oocytes were carefully washed several times with ND96 buffer (96 mM NaCl, 2 mM KCl, 1.8 mM CaCl2, 1 mM MgCl2 buffered with 5 mM HEPES/NaOH, pH 7.5) supplemented with 100 mg l^−1 gentamycin). Defolliculated and healthy-looking stage V-VI oocytes were manually selected for RNA microinjection. The RNA was generated as following: The codon-optimized sequences of PfCRT variants were cloned into the pSP64T expression vector. After vector linearization using the restriction endonucleases BamHI or SalI (New England Biolabs), transcription was performed using the in vitro SP6 mMessage mMachine Kit (Ambion)[34]. The obtained RNA was kept at −80 °C and diluted with nuclease-free water to a concentration of 0.6 μg μl^−1. Precision-bore glass capillary tubes (3.5-inch glass capillaries; Drummond Scientific Co.) were pulled on a vertical puller (P-87 Flaming/Brown micropipette puller, Sutter Instrument Co.), graduated, and placed on a microinjector (Nanoject II Auto-Nanoliter Injector, Drummond Scientific Co.). 50 nl of nuclease-free water alone (control oocytes) or 50 nl of 0.6 μg μl^−1 RNA were injected under stereomicroscopic control. Injected oocytes were incubated for 46–72 h at 18 °C with twice-daily buffer changes before usage in experiments.
Drug uptake assays were performed as described previously[21],[22],[24],[34]. […] The direction of radio-labeled drug transport is here from the mostly acidic extracellular solution (pH 4.5 or 6.0, as indicated) into the oocyte cytosol (pH ∼ 7.2), which corresponds to the efflux of drug from the acidic digestive vacuole (pH 5.2) into the parasite cytoplasm (pH 7.2). The topology of PfCRT in the oolemma is such that both the N- and C-terminus face the extracellular milieu[3],[22]. In the parasite, the N- and C-terminus face the lumen of the digestive vacuole. […] For determination of the amount of drug uptake for each oocyte, the reaction medium was removed and the oocytes were washed three times with 2 ml of ice-cold ND96 buffer. Each oocyte was individually transferred to a scintillation vial containing 5% sodium dodecyl sulfate (200 μl) for lysis. […] Oocytes that were injected with water instead of RNA were analyzed in parallel, representing the uptake of a drug by diffusion and/or endogenous permeation pathways. The resulting value represents the “background“ level of drug accumulation in oocytes (in-depth discussion in[22]). The specific PfCRT-mediated uptake was determined by subtracting the corresponding background value measured in water-injected oocytes from that of PfCRT-expressing oocytes. In all cases, at least three separate experiments were performed on oocytes from different frogs (biological replicate), and for each condition in an experiment, measurements were made from 10 oocytes per treatment. For pH 5.5, 6.0, and 6.5, ND96 was buffered with 5 mM MES/Tris base.

In another assay the target is T1, PfCRT variant E372A (Plasmodium falciparum, UniProt Q9N623, A220S/E372A/I356T/K76T/M74I/N326S/N75E/Q271E/R371I).
T1 sequence (Q9N623 1-424 M74I/N75E/K76T/A220S/Q271E/N326S/I356T/R371I/E372A): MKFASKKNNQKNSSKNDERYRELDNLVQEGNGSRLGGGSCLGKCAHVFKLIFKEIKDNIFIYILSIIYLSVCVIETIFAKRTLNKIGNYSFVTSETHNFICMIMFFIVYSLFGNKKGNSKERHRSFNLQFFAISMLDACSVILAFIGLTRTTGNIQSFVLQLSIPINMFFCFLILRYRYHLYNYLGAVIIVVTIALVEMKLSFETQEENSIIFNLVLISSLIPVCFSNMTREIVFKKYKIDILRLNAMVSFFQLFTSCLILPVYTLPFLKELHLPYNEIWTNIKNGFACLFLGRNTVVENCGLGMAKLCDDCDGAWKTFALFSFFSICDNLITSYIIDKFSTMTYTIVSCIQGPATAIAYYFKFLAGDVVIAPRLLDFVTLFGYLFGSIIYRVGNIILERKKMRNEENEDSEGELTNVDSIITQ
Nature of the assay: CQ uptake assay, oocytes expressing E372A. The format is cell-based. The method, then: as §1, §2
Drug uptake assays were performed as described previously[21],[22],[24],[34]. […] The direction of radio-labeled drug transport is here from the mostly acidic extracellular solution (pH 4.5 or 6.0, as indicated) into the oocyte cytosol (pH ∼ 7.2), which corresponds to the efflux of drug from the acidic digestive vacuole (pH 5.2) into the parasite cytoplasm (pH 7.2). The topology of PfCRT in the oolemma is such that both the N- and C-terminus face the extracellular milieu[3],[22]. In the parasite, the N- and C-terminus face the lumen of the digestive vacuole. CQ uptake kinetics were performed by incubating oocytes in ND96 buffer adjusted to a pH of 4.5, 5.0, 5.5, or 6.0 and supplemented with 50 nM [^3H]CQ and one of 7 different CQ concentrations (10 µM, 50 µM, 100 µM, 200 µM, 300 µM, 400 µM, 500 µM CQ). The reaction was stopped at the 60 min time point, which is in the linear uptake range[22],[34] (Supplementary Fig. 17). For determination of the amount of drug uptake for each oocyte, the reaction medium was removed and the oocytes were washed three times with 2 ml of ice-cold ND96 buffer. Each oocyte was individually transferred to a scintillation vial containing 5% sodium dodecyl sulfate (200 μl) for lysis. The radioactivity of each sample was measured using a liquid scintillation analyzer Tri-Carb 4910 TR (PerkinElmer). Oocytes that were injected with water instead of RNA were analyzed in parallel, representing the uptake of a drug by diffusion and/or endogenous permeation pathways. The resulting value represents the “background“ level of drug accumulation in oocytes (in-depth discussion in[22]). […]

The mark [1] stands for this setting: N84A, 50 µM CQ, 1 h, mean ± SEM.
The mark [2] stands for this setting: pH 4.5, individual replicates (Fig 6a).
The mark [3] stands for this setting: E372A, 50 µM CQ, 1 h, mean ± SEM.

Molecules are shown by their SMILES. Values joined by “and” are separate entries in the source; they are usually repeats but may differ in a detail not shown here. Identical values can stand only once.

Regarding `CCN(CC)CCCC(C)Nc1ccnc2cc(Cl)ccc12` (stereo not shown) [CQ, chloroquine], the “Activity at pH 4.5” value in the assay on PfCRT variant N84A (setting [1]) is reported as 1.41 ± 0.23 pmol h-1 oocyte-1; on PfCRT variant E372A (setting [3]) it was 2.23 ± 0.25 pmol h-1 oocyte-1. Besides, the results for the “Activity at pH 6.0” value in the assay on PfCRT variant N84A (setting [1]) and at PfCRT variant E372A (setting [3]) were 3.24 ± 0.32 pmol h-1 oocyte-1 and 4.71 ± 0.40 pmol h-1 oocyte-1, respectively. The R-value was 0.42 ± 0.04 and 0.42 in the assay with PfCRT variant N84A (N84A, CQ transport at pH 4.5 / pH 6.0); 0.49 ± 0.08 and 0.49 at PfCRT variant E372A (E372A, CQ transport at pH 4.5 / pH 6.0). Further, the “N84A transport activity pH 4.5” value in the assay with PfCRT variant N84A (setting [2]) was 1.45 pmol oocyte-1 h-1 and 0.73 pmol oocyte-1 h-1 and 1.46 pmol oocyte-1 h-1 and 2.00 pmol oocyte-1 h-1. Further, in the assay on PfCRT variant N84A (pH 6.0, individual replicates (Fig 6a)), the “N84A transport activity pH 6.0” value is 3.16 pmol oocyte-1 h-1 and 3.18 pmol oocyte-1 h-1 and 4.19 pmol oocyte-1 h-1. Further, the “N84A R-value” with PfCRT variant N84A (transport activity pH 4.5 relative to pH 6.0 (Fig 6a)) is 0.46 and 0.30 and 0.48. Besides, the “E372A transport activity pH 4.5” value at PfCRT variant E372A (setting [2]) is 3.05 pmol oocyte-1 h-1 and 1.75 pmol oocyte-1 h-1 and 2.16 pmol oocyte-1 h-1 and 1.95 pmol oocyte-1 h-1. The “E3723A transport activity pH 4.5” value at PfCRT variant E372A (pH 4.5, single replicates, Fig 1d left) was 3.05 pmol oocyte-1 h-1 and 1.75 pmol oocyte-1 h-1 and 2.16 pmol oocyte-1 h-1 and 1.95 pmol oocyte-1 h-1. Moreover, the “E372A transport activity pH 6.0” value was 4.02 pmol oocyte-1 h-1 and 4.13 pmol oocyte-1 h-1 and 6.01 pmol oocyte-1 h-1 and 4.68 pmol oocyte-1 h-1 on PfCRT variant E372A (individual replicates (Fig 6a)); 4.02 pmol oocyte-1 h-1 and 4.13 pmol oocyte-1 h-1 and 6.01 pmol oocyte-1 h-1 and 4.68 pmol oocyte-1 h-1 on PfCRT variant E372A (single replicates, Fig 1d left).
